Values quoted from earlier work in patent US20240100062A1, “Methods of Treatment With an Iboga Alkaloid” (priority 2022, published 2024).

Legend:
[1] = in vivo; cited from earlier work
[2] = test system: N-methyl-D-aspartate, kappa and mu opioid, sigma-1 and -2, nicotinic acetylcholine, serotonin transporter, and dopamine transporter; details: cited from earlier work

With Noribogaine as the substance, how does the half-life [1] read?
Its half-life is 28 to 49 h.

What about the “Affinity for neurotransmitter receptors” value [2] of the same substance?
The value was “moderate-to-weak affinity”.
